# Tests used:
# [1] = target: T1, Caspase-4 (Homo sapiens) (UniProt P49662); test: Effect on recombinant caspase 4 activity at 210 nM relative to control
# T1 sequence (whole entry): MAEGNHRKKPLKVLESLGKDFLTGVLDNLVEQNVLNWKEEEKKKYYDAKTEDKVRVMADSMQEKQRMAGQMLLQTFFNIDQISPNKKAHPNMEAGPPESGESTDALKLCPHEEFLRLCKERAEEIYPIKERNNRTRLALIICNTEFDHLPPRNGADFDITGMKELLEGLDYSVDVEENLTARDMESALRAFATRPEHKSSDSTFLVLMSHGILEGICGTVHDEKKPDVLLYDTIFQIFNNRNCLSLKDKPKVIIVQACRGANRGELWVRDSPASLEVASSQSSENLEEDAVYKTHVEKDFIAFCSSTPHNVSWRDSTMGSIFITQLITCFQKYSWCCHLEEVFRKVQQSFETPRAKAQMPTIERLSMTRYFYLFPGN
# [2] = target: T2, Caspase-6 (Homo sapiens) (UniProt P55212); test: Effect on recombinant caspase 6 activity at 210 nM relative to control
# T2 sequence (whole entry): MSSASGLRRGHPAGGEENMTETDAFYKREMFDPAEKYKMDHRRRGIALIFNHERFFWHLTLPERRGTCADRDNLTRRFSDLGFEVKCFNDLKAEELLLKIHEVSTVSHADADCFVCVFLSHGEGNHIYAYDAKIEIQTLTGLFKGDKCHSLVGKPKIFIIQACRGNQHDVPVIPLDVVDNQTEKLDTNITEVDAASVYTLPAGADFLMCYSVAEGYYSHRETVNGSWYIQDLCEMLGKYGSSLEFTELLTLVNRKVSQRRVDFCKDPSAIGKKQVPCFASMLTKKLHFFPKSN
# [3] = target: T3, Caspase-3 (Homo sapiens) (UniProt P42574); test: […] caspase 3 activity at 210 nM relative to control; set-up: scale not given: the % may be the effect or the level left
# T3 sequence (whole entry): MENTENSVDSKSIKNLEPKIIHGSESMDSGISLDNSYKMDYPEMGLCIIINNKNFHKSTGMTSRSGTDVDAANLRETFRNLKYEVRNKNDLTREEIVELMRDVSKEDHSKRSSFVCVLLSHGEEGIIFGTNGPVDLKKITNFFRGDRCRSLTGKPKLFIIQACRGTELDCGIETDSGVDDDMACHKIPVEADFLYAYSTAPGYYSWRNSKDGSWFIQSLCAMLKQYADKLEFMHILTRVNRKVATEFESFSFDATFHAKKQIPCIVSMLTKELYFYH
smiles,measurement,setting,value
CC(=O)N[C@@H](CC(=O)O)C(=O)NC1N=C(c2ccccc2)c2ccccc2N(CC(=O)N[C@H]2CC(=O)OC2O)C1=O (stereo partly drawn),Activity,[1],95%
same,Activity,[2],58%
same,Activity,[3],9%
